Laboratory results reported in patent publication US9486464B2, “Composition and method of manufacture” (Persavita Ltd, priority 2010, dated 2016).

Assays:
mammalian retina = settings: after exposure to damaging light; cited from earlier work
[1] = system: bovine and primate retinal cell cultures; settings: 160 μM crocin; cited from earlier work
primary RPE cells = experiment: Toxicity testing on RPE cell cultures (MTT assay); settings: 24 hours of exposure; crocin 10 μM to 500 μM, resveratrol 0.1 μM to 25 μM
Procedure: (§1) When implementing the method, concentrations of 10 μM to 500 μM crocin and 0.1 μM to 25 μM resveratrol are beneficially employed for toxicity characterization. Moreover, concentrations of 100 μM crocin and 1 μM resveratrol are beneficially employed to investigate synergistic effects against light-induced phototoxicity with a final DMSO concentration of 0.1%. Beneficially, DMSO is added to cultures at 0.1% (v/v) as a solvent control.
Dulbecco-modified Eagle medium (DMEM, obtainable from Biochrom, Berlin, Germany) supplemented with 10% fetal calf serum (FCS, obtainable from Biochrom, Berlin, Germany) was used as the cell culture medium when undertaking the experimental tests.
For determining cell survival rate after the aforesaid illumination, the tetrazolium dye-reduction assay (MTT); 3-[4,5-methylthiazol-2-yl]-2,2-diphenyl tetrazolium bromide) is beneficially used for determining the cell survival rate after aforesaid illumination has been applied. […] The serum-free cell culture medium is beneficially removed, the cells then washed with PBS, and thereafter 1000 μL of MTT solution (1.5 mL MTT stock, 2 mg/mL in PBS, together with 28.5 mL MEM) added to each well in the cell culture. […] Thereafter, absorption is beneficially measured by employing a scanning multiwell spectrophotometer operating at an interrogating radiation wavelength of 550 nm (apparatus obtainable from Molecular Probes). […]

primary human RPE cells = experiment: Light-induced phototoxicity in primary human RPE cells, viability by MTT assay; type: cell-based; settings: pre-treatment 100 μM crocin, 1 μM resveratrol or both; 300 mW/cm^2 for 60 min; FIG. 3
Procedure: as §1
For preparing the cell culture medium, primary RPE cells from three human donors (obtained 3 to 10 hours postmortem) without any history of eye disease were obtained from the Eye Bank of Ludwig Maximilian University. Dulbecco-modified Eagle medium (DMEM, obtainable from Biochrom, Berlin, Germany) supplemented with 10% fetal calf serum (FCS, obtainable from Biochrom, Berlin, Germany) was used as the cell culture medium when undertaking the experimental tests. […]
The aforesaid illumination is beneficially obtained from a spot-light source (LC-8, obtainable from Hamamatsu Photonics, Japan), although other illumination sources are optionally employed. […] For obtaining accurate experimental measurements, the illumination power and spectral range of illumination employed for the tests are beneficially measured using a spectrometer (C10083MD, obtainable from Hamamatsu Photonics), although other measuring instruments may be optionally employed. […]

human RPE cells = settings: cited from earlier work
mouse retina = settings: in vitro and in vivo, sirtuin-independent pathway; cited from earlier work
retina = settings: oral consumption in mice; cited from earlier work
[2] = system: vascular endothelial cells; settings: cited from earlier work

CC1=C(/C=C/C(C)=C/C=C/C(C)=C/C=C/C=C(C)/C=C/C=C(C)/C=C/C2=C(C)CCCC2(C)C)C(C)(C)CCC1 [beta-carotene]
retinal morphology and function (mammalian retina): ineffective for maintaining retinal function, and only improved morphology

CC(/C=C/C=C(\C)C(=O)O[C@@H]1O[C@H](CO[C@@H]2O[C@H](CO)[C@@H](O)[C@H](O)[C@H]2O)[C@@H](O)[C@H](O)[C@H]1O)=C\C=C\C=C(C)\C=C\C=C(/C)C(=O)O[C@@H]1O[C@H](CO[C@@H]2O[C@H](CO)[C@@H](O)[C@H](O)[C@H]2O)[C@@H](O)[C@H](O)[C@H]1O [crocin]
photoreceptors surviving light exposure [1]: more than 90% | toxic effects in respect of RPE cell cultures (primary RPE cells): no significant toxic effects | decrease in viability of RPE cells after light exposure compared with cells not treated (primary human RPE cells): significantly smaller decrease in viability

Oc1ccc(/C=C/c2cc(O)cc(O)c2)cc1 [resveratrol, 3,5,4″-trihydroxystilbene]
effect on acrolein-induced oxidative stress (human RPE cells): protective effects | pathological angiogenesis (mouse retina): inhibit pathological angiogenesis | retinal degradation related to light damage (retina): capable of preventing retinal degradation | decrease in viability of RPE cells after light exposure compared with cells not treated (primary human RPE cells): significantly smaller decrease in viability | proliferation and migration of vascular endothelial cells [2]: inhibiting proliferation and migration
